One molecule from PubChem BioAssay (NCI) can be followed below.

The experiment deals with P388/ADR leukemia. Kind of experiment: NCI tumour cell line growth inhibition, 48 h.

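1) Cells in 96-well plates. 2) Compound, 48 h, 5 concentrations. 3) Linear interpolation between surrounding doses. 4) Unreached endpoint = highest concentration. TGI: total growth inhibition.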

`Nc1ncnc2c(C3OC(CO)C(O)C3O)[nH]nc12` (stereo unspecified): the TGI was found to be 123 µM.
